# According to publication PMC12155096 (International Journal of Molecular Sciences, 2025):
# Target: Photinus pyralis (firefly) luciferase (Photinus pyralis, UniProt P08659)
# Assay: biochemical
# Type: biochemical
# Conditions: not given; call rule not given here
# Sequence of Photinus pyralis (firefly) luciferase (P08659 whole entry): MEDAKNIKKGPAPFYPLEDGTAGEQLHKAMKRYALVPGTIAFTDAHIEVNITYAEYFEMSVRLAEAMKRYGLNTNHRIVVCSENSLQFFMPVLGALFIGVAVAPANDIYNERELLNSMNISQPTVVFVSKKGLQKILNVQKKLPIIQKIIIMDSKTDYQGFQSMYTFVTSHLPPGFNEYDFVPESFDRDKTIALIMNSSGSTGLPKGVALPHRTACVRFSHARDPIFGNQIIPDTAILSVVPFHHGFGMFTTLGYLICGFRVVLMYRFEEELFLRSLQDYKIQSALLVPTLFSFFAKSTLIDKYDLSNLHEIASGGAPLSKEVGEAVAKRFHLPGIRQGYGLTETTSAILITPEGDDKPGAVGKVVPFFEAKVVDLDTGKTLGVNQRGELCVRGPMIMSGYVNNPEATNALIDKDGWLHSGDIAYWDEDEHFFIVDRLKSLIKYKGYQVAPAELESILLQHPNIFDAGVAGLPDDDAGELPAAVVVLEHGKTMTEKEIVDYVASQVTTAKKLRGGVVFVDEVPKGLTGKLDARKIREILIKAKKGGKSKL
row,SMILES,Luciferase IC50 (half-maximal inhibitory concentration)
1,CC(C1CC1)C(O)(Cn1cncn1)c1ccc(Cl)cc1 (centres unmarked) [Cyproconazole],Inactive
2,CCC1COC(Cn2cncn2)(c2ccc(Cl)cc2Cl)O1 (centres unmarked) [Etaconazole],Inactive
3,COP(=S)(OC)Oc1ccc(S(=O)(=O)N(C)C)cc1 [Famphur],Inactive
4,O=C1C(Cl)C(CCl)CN1c1cccc(C(F)(F)F)c1 (centres unmarked) [Flurochloridone],Inactive

# Target: T1, human CYP1A2 (Homo sapiens, UniProt P05177)
# T1 sequence (P05177 1-516): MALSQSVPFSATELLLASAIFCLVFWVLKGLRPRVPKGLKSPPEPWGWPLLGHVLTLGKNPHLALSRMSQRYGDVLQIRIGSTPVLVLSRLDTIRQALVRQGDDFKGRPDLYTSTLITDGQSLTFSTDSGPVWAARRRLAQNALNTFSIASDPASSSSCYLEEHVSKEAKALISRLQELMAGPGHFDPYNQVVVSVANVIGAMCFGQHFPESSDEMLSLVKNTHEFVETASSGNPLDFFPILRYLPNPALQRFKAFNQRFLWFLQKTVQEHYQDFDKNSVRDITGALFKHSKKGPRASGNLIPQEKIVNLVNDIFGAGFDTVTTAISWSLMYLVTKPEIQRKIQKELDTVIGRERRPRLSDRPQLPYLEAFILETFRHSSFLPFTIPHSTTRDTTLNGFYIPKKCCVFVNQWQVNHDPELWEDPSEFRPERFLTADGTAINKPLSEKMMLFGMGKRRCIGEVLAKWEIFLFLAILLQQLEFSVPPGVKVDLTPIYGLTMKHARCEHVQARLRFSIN
# Assay: not given
# Conditions: human
row,SMILES,CYP1A2 Efficacy (in parenthesis)
1,CC(C1CC1)C(O)(Cn1cncn1)c1ccc(Cl)cc1 (centres unmarked) [Cyproconazole],30.37 ± 9.95 (-33 ± 2) %
2,CCC1COC(Cn2cncn2)(c2ccc(Cl)cc2Cl)O1 (centres unmarked) [Etaconazole],31.85 ± 3.66 (-69 ± 5) %
3,COP(=S)(OC)Oc1ccc(S(=O)(=O)N(C)C)cc1 [Famphur],35.73 ± 4.11 (-67 ± 14) %

# Target: T2, human CYP2C9 (Homo sapiens, UniProt P11712)
# T2 sequence (P11712 whole entry): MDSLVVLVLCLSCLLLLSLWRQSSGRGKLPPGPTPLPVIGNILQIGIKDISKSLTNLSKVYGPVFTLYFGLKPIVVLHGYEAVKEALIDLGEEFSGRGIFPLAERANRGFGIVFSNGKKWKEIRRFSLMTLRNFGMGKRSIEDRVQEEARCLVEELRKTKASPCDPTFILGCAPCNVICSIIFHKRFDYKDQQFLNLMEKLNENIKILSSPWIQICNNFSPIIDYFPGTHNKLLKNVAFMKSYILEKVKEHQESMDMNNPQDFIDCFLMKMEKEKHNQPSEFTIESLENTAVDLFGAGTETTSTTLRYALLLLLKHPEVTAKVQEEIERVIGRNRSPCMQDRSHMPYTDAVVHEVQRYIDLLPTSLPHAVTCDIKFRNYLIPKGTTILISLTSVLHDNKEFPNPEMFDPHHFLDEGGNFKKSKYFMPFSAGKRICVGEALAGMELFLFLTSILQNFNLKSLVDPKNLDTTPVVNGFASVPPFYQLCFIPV
# Assay: not given
# Conditions: human
SMILES,CYP2C9 Efficacy (in parenthesis),CYP2C9 IC50 (half-maximal inhibitory concentration)
CC(C1CC1)C(O)(Cn1cncn1)c1ccc(Cl)cc1 (centres unmarked) [Cyproconazole],0.13 ± 0.04 (-105 ± 6) %,
CCC1COC(Cn2cncn2)(c2ccc(Cl)cc2Cl)O1 (centres unmarked) [Etaconazole],5.71 ± 1.07 (-109 ± 6) %,
COP(=S)(OC)Oc1ccc(S(=O)(=O)N(C)C)cc1 [Famphur],0.4 ± 0.05 (-109 ± 5) %,
O=C1C(Cl)C(CCl)CN1c1cccc(C(F)(F)F)c1 (centres unmarked) [Flurochloridone],,7.82 ± 1.95 (82 ± 14) µM

# Target: T3, human CYP2C19 (Homo sapiens, UniProt P33261)
# T3 sequence (P33261 whole entry): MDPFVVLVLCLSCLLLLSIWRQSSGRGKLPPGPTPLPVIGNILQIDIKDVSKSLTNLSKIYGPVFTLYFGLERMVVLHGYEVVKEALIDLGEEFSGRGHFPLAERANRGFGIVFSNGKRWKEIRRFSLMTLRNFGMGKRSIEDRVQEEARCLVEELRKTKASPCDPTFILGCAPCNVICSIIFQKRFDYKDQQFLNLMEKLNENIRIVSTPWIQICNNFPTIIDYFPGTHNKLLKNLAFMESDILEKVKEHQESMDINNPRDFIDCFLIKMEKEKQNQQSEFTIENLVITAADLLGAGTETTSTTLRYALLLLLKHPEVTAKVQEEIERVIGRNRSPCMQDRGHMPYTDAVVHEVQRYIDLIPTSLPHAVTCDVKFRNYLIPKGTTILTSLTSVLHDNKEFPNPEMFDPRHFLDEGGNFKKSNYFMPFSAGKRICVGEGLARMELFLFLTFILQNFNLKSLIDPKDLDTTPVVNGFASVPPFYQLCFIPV
# Assay: not given
# Conditions: human
row,SMILES,CYP2C19 Efficacy (in parenthesis)
1,CC(C1CC1)C(O)(Cn1cncn1)c1ccc(Cl)cc1 (centres unmarked) [Cyproconazole],0.3 ± 0.07 (-141 ± 28) %
2,CCC1COC(Cn2cncn2)(c2ccc(Cl)cc2Cl)O1 (centres unmarked) [Etaconazole],0.32 ± 0.04 (-137 ± 10) %
3,COP(=S)(OC)Oc1ccc(S(=O)(=O)N(C)C)cc1 [Famphur],0.09 ± 0.01 (-137 ± 1) %

# Target: T4, human CYP2D6 (Homo sapiens, UniProt P10635)
# T4 sequence (P10635 whole entry): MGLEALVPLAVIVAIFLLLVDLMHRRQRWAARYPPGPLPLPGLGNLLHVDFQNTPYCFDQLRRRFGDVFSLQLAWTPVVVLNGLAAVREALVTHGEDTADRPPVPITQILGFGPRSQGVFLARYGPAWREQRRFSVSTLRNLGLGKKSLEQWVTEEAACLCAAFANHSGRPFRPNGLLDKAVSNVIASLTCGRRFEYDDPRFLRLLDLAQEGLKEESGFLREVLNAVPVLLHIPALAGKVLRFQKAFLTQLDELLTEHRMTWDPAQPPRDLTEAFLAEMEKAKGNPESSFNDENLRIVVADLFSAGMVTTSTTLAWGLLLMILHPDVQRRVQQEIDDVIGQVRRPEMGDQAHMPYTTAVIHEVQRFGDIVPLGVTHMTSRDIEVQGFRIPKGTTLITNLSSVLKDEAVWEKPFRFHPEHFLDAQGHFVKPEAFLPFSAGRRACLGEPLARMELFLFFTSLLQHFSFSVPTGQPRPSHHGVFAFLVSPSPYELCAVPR
# Assay: not given
# Conditions: human
row,SMILES,CYP2D6 Efficacy (in parenthesis)
1,CC(C1CC1)C(O)(Cn1cncn1)c1ccc(Cl)cc1 (centres unmarked) [Cyproconazole],38.25 ± 2.49 (-72 ± 6) %
2,CCC1COC(Cn2cncn2)(c2ccc(Cl)cc2Cl)O1 (centres unmarked) [Etaconazole],45.4 ± 9.51 (-42 ± 2) %
3,COP(=S)(OC)Oc1ccc(S(=O)(=O)N(C)C)cc1 [Famphur],35.57 ± 0 (-59 ± 2) %

# Target: T5, CYP3A4 (Homo sapiens, UniProt P08684)
# T5 sequence (P08684 whole entry): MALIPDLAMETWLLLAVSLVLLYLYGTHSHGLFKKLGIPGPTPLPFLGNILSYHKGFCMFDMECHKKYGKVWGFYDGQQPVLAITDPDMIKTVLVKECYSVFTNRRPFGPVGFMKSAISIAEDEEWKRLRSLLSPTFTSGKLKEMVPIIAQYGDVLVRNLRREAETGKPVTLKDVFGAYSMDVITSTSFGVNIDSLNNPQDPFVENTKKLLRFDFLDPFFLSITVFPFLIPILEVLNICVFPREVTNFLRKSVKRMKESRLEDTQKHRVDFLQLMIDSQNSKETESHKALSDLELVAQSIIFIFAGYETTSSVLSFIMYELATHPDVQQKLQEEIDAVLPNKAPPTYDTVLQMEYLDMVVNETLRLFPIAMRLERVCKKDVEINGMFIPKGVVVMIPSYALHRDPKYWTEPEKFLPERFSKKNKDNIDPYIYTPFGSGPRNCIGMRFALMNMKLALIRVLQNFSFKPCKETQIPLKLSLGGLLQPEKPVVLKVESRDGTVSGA
# Assay: not given
# Conditions: not given
row,SMILES,CYP3A4 Efficacy (in parenthesis)
1,CC(C1CC1)C(O)(Cn1cncn1)c1ccc(Cl)cc1 (centres unmarked) [Cyproconazole],0.97 ± 0.57 (-70 ± 7) %
2,CCC1COC(Cn2cncn2)(c2ccc(Cl)cc2Cl)O1 (centres unmarked) [Etaconazole],0.1 ± 0.01 (-79 ± 1) %
3,COP(=S)(OC)Oc1ccc(S(=O)(=O)N(C)C)cc1 [Famphur],9.06 ± 1.9 (-86 ± 7) %
4,O=C1C(Cl)C(CCl)CN1c1cccc(C(F)(F)F)c1 (centres unmarked) [Flurochloridone],6.98 ± 2.77 (42 ± 7) %

# Target: T1, human CYP1A2
# Assay: biochemical
# Conditions: CYP1A2 AC50 (half-maximal activity concentration)
row,SMILES,AC50 [µM]
1,O=C1C(Cl)C(CCl)CN1c1cccc(C(F)(F)F)c1 (centres unmarked) [Flurochloridone],1.04

# Same assay, conditions: CYP1A2 IC50 (half-maximal inhibitory concentration)
row,SMILES,IC50 [µM]
1,CC(C1CC1)C(O)(Cn1cncn1)c1ccc(Cl)cc1 (centres unmarked) [Cyproconazole],30.4
2,CCC1COC(Cn2cncn2)(c2ccc(Cl)cc2Cl)O1 (centres unmarked) [Etaconazole],31.9
3,COP(=S)(OC)Oc1ccc(S(=O)(=O)N(C)C)cc1 [Famphur],35.7
4,O=C1C(Cl)C(CCl)CN1c1cccc(C(F)(F)F)c1 (centres unmarked) [Flurochloridone],1.04

# Target: T2, human CYP2C9
# Assay: biochemical
# Conditions: not given
row,SMILES,IC50 [µM]
1,COP(=S)(OC)Oc1ccc(S(=O)(=O)N(C)C)cc1 [Famphur],0.4

# Same assay, conditions: CYP2C9 AC50 (half-maximal activity concentration)
row,SMILES,AC50 [µM]
1,O=C1C(Cl)C(CCl)CN1c1cccc(C(F)(F)F)c1 (centres unmarked) [Flurochloridone],7.82

# Same assay, conditions: CYP2C9 IC50 (half-maximal inhibitory concentration)
row,SMILES,IC50 [µM]
1,CC(C1CC1)C(O)(Cn1cncn1)c1ccc(Cl)cc1 (centres unmarked) [Cyproconazole],0.13
2,CCC1COC(Cn2cncn2)(c2ccc(Cl)cc2Cl)O1 (centres unmarked) [Etaconazole],5.71

# Target: T3, human CYP2C19
# Assay: biochemical
# Conditions: CYP2C19 AC50 (half-maximal activity concentration)
row,SMILES,AC50 [µM]
1,O=C1C(Cl)C(CCl)CN1c1cccc(C(F)(F)F)c1 (centres unmarked) [Flurochloridone],12.3

# Same assay, conditions: CYP2C19 IC50 (half-maximal inhibitory concentration)
row,SMILES,IC50 [µM]
1,CC(C1CC1)C(O)(Cn1cncn1)c1ccc(Cl)cc1 (centres unmarked) [Cyproconazole],0.3
2,CCC1COC(Cn2cncn2)(c2ccc(Cl)cc2Cl)O1 (centres unmarked) [Etaconazole],0.32
3,COP(=S)(OC)Oc1ccc(S(=O)(=O)N(C)C)cc1 [Famphur],0.09
4,O=C1C(Cl)C(CCl)CN1c1cccc(C(F)(F)F)c1 (centres unmarked) [Flurochloridone],12.3

# Target: T4, human CYP2D6
# Assay: biochemical
# Conditions: not given
row,SMILES,IC50 [µM]
1,COP(=S)(OC)Oc1ccc(S(=O)(=O)N(C)C)cc1 [Famphur],35.6

# Same assay, conditions: CYP2D6 AC50 (half-maximal activity concentration)
row,SMILES,AC50 [µM]
1,O=C1C(Cl)C(CCl)CN1c1cccc(C(F)(F)F)c1 (centres unmarked) [Flurochloridone],35.9

# Same assay, conditions: CYP2D6 IC50 (half-maximal inhibitory concentration)
row,SMILES,IC50 [µM]
1,CC(C1CC1)C(O)(Cn1cncn1)c1ccc(Cl)cc1 (centres unmarked) [Cyproconazole],38.3
2,CCC1COC(Cn2cncn2)(c2ccc(Cl)cc2Cl)O1 (centres unmarked) [Etaconazole],45.4
3,O=C1C(Cl)C(CCl)CN1c1cccc(C(F)(F)F)c1 (centres unmarked) [Flurochloridone],35.9

# Target: T5, CYP3A4
# Assay: biochemical
# Conditions: CYP3A4 IC50 (half-maximal inhibitory concentration)
row,SMILES,IC50 [µM]
1,CC(C1CC1)C(O)(Cn1cncn1)c1ccc(Cl)cc1 (centres unmarked) [Cyproconazole],0.97
2,CCC1COC(Cn2cncn2)(c2ccc(Cl)cc2Cl)O1 (centres unmarked) [Etaconazole],0.1
3,COP(=S)(OC)Oc1ccc(S(=O)(=O)N(C)C)cc1 [Famphur],9.06
4,O=C1C(Cl)C(CCl)CN1c1cccc(C(F)(F)F)c1 (centres unmarked) [Flurochloridone],6.98
